Experimental data: US20160296529A1, “AMINOTRIAZOLOPYRIDINE FOR USE IN THE TREATMENT OF INFLAMMATION, AND PHARMACEUTICAL COMPOSITIONS THEREOF” (priority 2012, published 2016)
Where two headings read alike, the source gives them in different places.

Legend:
[1] = Single dose pharmacokinetics in human; assay type: in vivo; conditions: for Ratio I/II of exposure (AUC Formula I : AUC Formula II) / AUC: human; for AUC: plasma, po, capsules, read-out: exposure (expressed as AUC)
Experimental: Serial blood samples were collected over 72 h to determine plasma concentrations of the compounds according to Formula II and Formula I using a validated liquid chromatography-mass spectrometry/mass spectrometry (LC-MS/MS) method with a limit of quantification of 1.00 ng/mL. PK parameters were assessed using a statistical analysis package (WinNonLin (Pharsight, Sunnyvale, Calif.: CA 94086, USA).
Mean plasma concentration-time profiles of the compound according to Formula II and the compound according to Formula I were measured.
In order to show the comparative exposures of the two compounds, the AUC of the compounds according to Formula I and the compound according to Formula II were calculated. The AUC value represents the total exposure of the compound in the species after dosing. These values were then expressed as a ratio of AUC of the compound according to Formula I: AUC of the compound according to Formula II in FIG. 4. From this ratio it can clearly be seen that there was a significant difference in exposure to a compound according to Formula I after administration of a compound according to Formula II in human compared to the exposure seen in animals for therapeutically equivalent doses. Without wanting to be bound by theory, it was believed that this difference was related to the difference in the apparent terminal half-life in the different species.

hepatocytes of rat = assay: In vitro metabolism study in hepatocytes, rat; assay type: in vitro ADME; conditions: rat hepatocyte suspension; 24 h incubation of 100 μM [14C]-Formula II
Experimental: (§1) Hepatocyte stability (Concentrations of the compound according to Formula II and its main metabolites (as % of total radioactivity) after 24 h incubation of 100 μM [^14C]-Compound according to Formula II in hepatocyte suspension of different species)

hepatocytes of human = assay: In vitro metabolism study in hepatocytes, human; assay type: in vitro ADME; conditions: human hepatocyte suspension, 24 h incubation of 100 μM [14C]-Formula II
Experimental: as §1

rat CIA model = assay: CIA model 2 (rat collagen induced arthritis, ankle diameter); assay type: in vivo, Female Lewis rats
From the text: Female Lewis rats (n=76) that weighed 165-194 grams (mean approx. 178 g) on arthritis day 0 were obtained from Charles River Laboratories, Inc., Wilmington, Mass., (ref#393739). Animals were identified by a distinct number at the base of the tail delineating group and animal number.
Upon arrival, animals were housed 4/cage in shoe-box polycarbonate cages and acclimated for 8 days prior to being immunized with type II collagen. No concurrent medications were given.
During the acclimation and study periods, animals were housed in a laboratory environment with temperatures ranging 19-25° […]. and relative humidity of 30%-70%. Automatic timers provided 12 h of light and 12 h of dark. Animals were allowed access ad libitum to food and water.
Acclimated female Lewis rats were anesthetized with Isoflurane and receive subcutaneous/intradermal (SC/ID) injections with 300 μL of Freund's Incomplete Adjuvant (Difco, Detroit, Mich.) containing 2 mg/mL bovine type II collagen (Elastin Products, Owensville, Mo.) at the base of the tail and 2 sites on the back on day −9 and on day −3.
Collagen was prepared by making a 4 mg/mL solution in 0.01N Acetic acid. Equal volumes of collagen and Freund's incomplete adjuvant, were emulsified by hand mixing until a bead of this material holds its form when placed in water. Each animal received 300 μL of the mixture on each occasion divided over 3 subcutaneous sites on back.
On study day 1, onset of arthritis occurred and animals were randomized into treatment groups. After randomization, all cages were labelled with protocol number, group number, and animal numbers. Randomization into each group was done after ankle joint swelling was obviously established and there was good evidence of bilateral disease.
Animals with established type II collagen arthritis were treated daily (QD) by the oral (PO) route for 13 days with vehicle (methylcellulose 0.5% (w/v)), or with active compound(s) prepared in methylcellulose, 0.5% (w/v). Oral dosing was initiated on arthritis day 1 and continued daily (QD at 24 h intervals) through day 13. Animals were terminated on arthritis day 14.
The severity of the arthritis was evaluated by measuring the diameter of both ankles on the animals. Caliper measurements of ankles were taken every day beginning on day 0, with a Digitrix II micrometer (Fowler & NSK). Baseline measurements were taken using one ankle with values rounded to one-thousandth of an inch. Measurements were confirmed as clinically normal (0.260-0.264 in) by comparison with historical values for rats based on a range of body weights. Baseline measurements were then applied to both ankles, and these values remain with the animal so long as the ankle was clinically normal with good definition of all the ankle bones and no evidence of inflammation. Animals were terminated on day 14.

[2] = after Formula II 10 mg single dose
[3] = after Formula II 25 mg single dose
[4] = after Formula II 50 mg single dose
[5] = after Formula II 100 mg single dose
[6] = after Formula II 200 mg single dose

apparent terminal half life in human relative to the other animal species ([1]; human vs other animal species, in vivo): at least 3 fold
Ratio I/II of exposure (AUC Formula I : AUC Formula II) [1, 2]: 22.58
Ratio I/II of exposure (AUC Formula I : AUC Formula II) [1, 3]: 21.81
Ratio I/II of exposure (AUC Formula I : AUC Formula II) [1, 4]: 19.86
Ratio I/II of exposure (AUC Formula I : AUC Formula II) [1, 5]: 15.92
Ratio I/II of exposure (AUC Formula I : AUC Formula II) [1, 6]: 12.8
half-life ([1]; oral, human plasma, single dose (10-200 mg) of Formula II as capsules, read-out: mean apparent terminal elimination half-life): 21 to 27 h
AUC [1, 2]: 2890 ng·h/mL
AUC [1, 3]: 7220 ng·h/mL
AUC [1, 4]: 14600 ng·h/mL
AUC [1, 5]: 26900 ng·h/mL
AUC [1, 6]: 57600 ng·h/mL
In vitro metabolic profile of Formula II (as % of total radioactivity) (hepatocytes of rat): 12%
In vitro metabolic profile of Formula II (as % of total radioactivity) (hepatocytes of human): 11%
In vitro metabolic profile of Formula II (as % of total radioactivity) (hepatocytes of human; listed as drawing 11): 11.2%
Structure (SMILES): Nc1nc2cccc(-c3ccc(CN4CCS(=O)(=O)CC4)cc3)n2n1 [Formula I, 5-[4-(1,1-Dioxothiomorpholin-4-ylmethyl)-phenyl]-[1,2,4]triazolo[1,5-a]pyridin-2-ylamine]
significance to vehicle control (ANOVA) in the CIA second model (rat CIA model; group G: Formula I 25 mg/kg PO QD): mg/kg (*) (((*) = p ≦ 0.05 ANOVA to vehicle control))
ankle diameter (rat CIA model; group G: Formula I 25 mg/kg PO QD, day 0): 0.2629 inches
ankle diameter (rat CIA model; group G: Formula I 25 mg/kg PO QD, day 1): 0.2717 inches
ankle diameter (rat CIA model; group G: Formula I 25 mg/kg PO QD, day 2): 0.2747 inches
ankle diameter (rat CIA model; group G: Formula I 25 mg/kg PO QD, day 3): 0.2826 inches
ankle diameter (rat CIA model; group G: Formula I 25 mg/kg PO QD, day 4): 0.2892 inches
ankle diameter (rat CIA model; group G: Formula I 25 mg/kg PO QD, day 5): 0.2973 inches
ankle diameter (rat CIA model; group G: Formula I 25 mg/kg PO QD, day 6): 0.3064 inches
ankle diameter (rat CIA model; group G: Formula I 25 mg/kg PO QD, day 7): 0.3108 inches
ankle diameter (rat CIA model; group G: Formula I 25 mg/kg PO QD, day 8): 0.3150 inches
ankle diameter (rat CIA model; group G: Formula I 25 mg/kg PO QD, day 9): 0.3089 inches
ankle diameter (rat CIA model; group G: Formula I 25 mg/kg PO QD, day 10): 0.3046 inches
ankle diameter (rat CIA model; group G: Formula I 25 mg/kg PO QD, day 11): 0.3025 inches
ankle diameter (rat CIA model; group G: Formula I 25 mg/kg PO QD, day 12): 0.3006 inches
ankle diameter (rat CIA model; group G: Formula I 25 mg/kg PO QD, day 13): 0.2996 inches
ankle diameter (rat CIA model; group G: Formula I 25 mg/kg PO QD, day 14): 0.3016 inches
significance to vehicle control (ANOVA) in the CIA second model (rat CIA model; group H: Formula I 50 mg/kg PO QD): mg/kg (*) (((*) = p ≦ 0.05 ANOVA to vehicle control))
ankle diameter (rat CIA model; group H: Formula I 50 mg/kg PO QD, day 0): 0.2624 inches
ankle diameter (rat CIA model; group H: Formula I 50 mg/kg PO QD, day 1): 0.2718 inches
ankle diameter (rat CIA model; group H: Formula I 50 mg/kg PO QD, day 2): 0.2705 inches
ankle diameter (rat CIA model; group H: Formula I 50 mg/kg PO QD, day 3): 0.2814 inches
ankle diameter (rat CIA model; group H: Formula I 50 mg/kg PO QD, day 4): 0.2886 inches
ankle diameter (rat CIA model; group H: Formula I 50 mg/kg PO QD, day 5): 0.2970 inches
ankle diameter (rat CIA model; group H: Formula I 50 mg/kg PO QD, day 6): 0.3061 inches
ankle diameter (rat CIA model; group H: Formula I 50 mg/kg PO QD, day 7): 0.3110 inches
ankle diameter (rat CIA model; group H: Formula I 50 mg/kg PO QD, day 8): 0.3160 inches
ankle diameter (rat CIA model; group H: Formula I 50 mg/kg PO QD, day 9): 0.3085 inches
ankle diameter (rat CIA model; group H: Formula I 50 mg/kg PO QD, day 10): 0.3032 inches
ankle diameter (rat CIA model; group H: Formula I 50 mg/kg PO QD, day 11): 0.3041 inches
ankle diameter (rat CIA model; group H: Formula I 50 mg/kg PO QD, day 12): 0.3039 inches
ankle diameter (rat CIA model; group H: Formula I 50 mg/kg PO QD, day 13): 0.3014 inches
ankle diameter (rat CIA model; group H: Formula I 50 mg/kg PO QD, day 14): 0.2999 inches
